The values below are quoted from earlier work in patent publication US6423847B1, “Synthesis and clinical uses of D,α-tocopherol nicotinate compounds” (Chronorx, LLC, priority 1999, dated 2002).

The term cell viability denotes a read-out of living cells in per cent, often relative to untreated cells.

Like-named read-outs stand apart in the source and are kept apart here.

For data set [1] the following is noted: laboratory mice.
Data set [2] has as its system exogenous glucose utilization by the heart. The following applies: normal volunteers, 18F-fluorodeoxyglucose PET.
For data set [3], the system named is liver NAD+; poly(ADP-ribose).
Data set [4] relates to human aortic endothelial cells. As to conditions: human aortic endothelial cells pre-incubated with vitamin E, oxidative stress; increased from 37%.
For data set [5], the system named is malonyldialdehyde and superoxide anion levels. The following applies: 400 mg once a day, orally for 4 weeks.
The test system of data set [6] is glutathione peroxidase (GSHPx). As to conditions: following supplementation with DAT.

As to `O=C(O)c1cccnc1` [Nicotinic acid, nicotinic acid], the “increase in Zn+2 absorption” value in data set [1] (fasting states) is reported as 38.9%; in data set [1] (postprandial conditions), 70.9%. Besides, the “increase in exogenous glucose utilization by the heart” value in data set [2] is “two- to three-fold increase”.

As to `NC(=O)c1cccnc1` [nicotinamide], in data set [3] (above control groups), the “liver polyADP-ribose” value is “significantly elevates”. Also, in data set [3] (at 1000 mg/kg), the “liver NAD+” value is “elevations”.

For `Cc1c(C)c2c(c(C)c1O)CC[C@@](C)(CCC[C@H](C)CCC[C@H](C)CCCC(C)C)O2` [vitamin E, D,α-tocopherol], the cell viability in data set [4] is listed as 85%. For the same compound, in data set [5], the malonyldialdehyde levels entry is recorded as “significantly reduces” and the superoxide anion levels result is “significantly reduces”. For the same compound, the “glutathione peroxidase (GSHPx) activities” value in data set [6] was “increase as much as twofold”.
